Assay results: US5472954A, “Cyclodextrin complexation” (priority 1993, dated 1995)
In brackets after ≈: the same amount, converted by molar mass.

Key:
[1] = ΔH, ΔS and stability constant (Kc) of drug-HPβCD MS 0.6 complexes, effect of PVP (Example 17); type: physicochemical; details: HPβCD MS 0.6 complex
Description: The effect of polyvinylpyrrolidone (PVP) on the enthalpy (ΔH) and the entropy (ΔS) of the stability constant (Kc) of the drug-cyclodextrin complex was determined.
An excess amount of the drug was added to water containing 0, 0.1, 0.25 or 0.5% (w/v) PVP and various amounts of HPβCD or HPαCD.

physchem [2] = assay: physchem
physchem [3] = assay: physchem; remark: listed apart in the source
Description: An excess amount of the compound to be tested was added to each solvent and the suspensions which formed were heated in sealed containers to 120° C. The solubility of salicylic acid was determined in acidic (HCl) solution.

[4] = Solubility of various drugs: effect of CMC in aqueous HPβCD solutions (Example 1); details: for S4 /S3: 0.25% CMC + 10% HPβCD vs 10% HPβCD
physchem [5] = assay: physchem; remark: listed apart in the source
[6] = Effect of PVP on the solubilization of drugs in aqueous HPβCD solutions (Example 7); details: for S4 /S3: with vs without 0.25% PVP
[7] = Effect of previously prepared solid HPβCD-polymer complexing agent on solubility (Example 13); type: physicochemical
Description: The resultant solutions were heated in sealed containers to 120° C. and maintained at that temperature for 30 minutes, then were lyophilized. The solids thus obtained were ground with a mortar and pestle.
The solid cyclodextrin/polymer products were reconstituted with water to afford solutions containing 9.88% (w/v) HPβCD and 0.12% (w/v) PVP, 0.12% (w/v) or CMC 0.12% (w/v) HPMC. The solubilities (S) of three drugs in these solutions and in an aqueous solution containing 10% (w/v) HPβCD without added polymer were then determined as follows:
An excess amount of each drug was added to each of the four cyclodextrin solutions and the solutions were sonicated in an ultrasonic bath for 3 hours, then allowed to equilibrate for 60 hours at room temperature (23° C.). […] However, by separate preparation of the cyclodextrin/polymer complexing agent as illustrated here, one can readily avoid heating drugs which are unstable at elevated temperature.

[8] = HPβCD with CMC / HPβCD without polymer (S6)
[9] = HPβCD with HPMC / HPβCD without polymer (S8)
[10] = HPβCD with PVP / HPβCD without polymer (S7)

C[C@]12CC[C@@H]3c4ccc(O)cc4CC[C@H]3[C@@H]1CC[C@@H]2O [17β-Estradiol, 17β-estradiol]
ΔH ([1]; PVP 0.00% w/v): -71.1 kJ/mol | ΔS ([1]; PVP 0.00% w/v): -151 J mol^-1 K^-1 | ΔH ([1]; PVP 0.10% w/v): -75.3 kJ/mol | ΔS ([1]; PVP 0.10% w/v): -166 J mol^-1 K^-1 | ΔH ([1]; PVP 0.25% w/v): -89.5 kJ/mol | ΔS ([1]; PVP 0.25% w/v): -213 J mol^-1 K^-1 | ΔH ([1]; PVP 0.50% w/v): -81.2 kJ/mol | ΔS ([1]; PVP 0.50% w/v): -185 J mol^-1 K^-1

Cc1nnc2n1-c1ccc(Cl)cc1C(c1ccccc1)=NC2 [Alprazolam]
solubility (physchem [2]; 0.25% cmc + 10% hpbetacd): 1550 µg/mL | solubility (physchem [2]; aqueous 0.25% cmc): 180 µg/mL (≈ 0.583 mM) | solubility (physchem [2]; aqueous 10% hpbetacd): 1280 µg/mL (≈ 4.15 mM) | solubility (physchem [2]; water): 70 µg/mL (≈ 0.227 mM)

COc1cc(C=O)ccc1O [Vanillin]
solubility (physchem [3]; 0.25% hpmc + 10% hpβcd): 26500 µg/mL | solubility ratio (physchem [3]; [8]): 1.09 | solubility ratio (physchem [3]; [9]): 1.06 | solubility (physchem [3]; aqueous 0.25% cmc): 13700 µg/mL (≈ 90 mM) | solubility (physchem [3]; aqueous 0.25% cmc, 10% hpβcd): 27300 µg/mL (≈ 179 mM) | solubility (physchem [3]; aqueous 0.25% hpmc): 17100 µg/mL (≈ 112 mM) | solubility (physchem [3]; aqueous 0.25% pvp): 11500 µg/mL (≈ 75.6 mM) | solubility (physchem [3]; aqueous 10% hpβcd): 25000 µg/mL (≈ 164 mM) | solubility (physchem [3]; water): 13900 µg/mL (≈ 91.4 mM)

C[C@]12C=CC(=O)C=C1CC[C@@H]1[C@@H]2[C@@H](O)C[C@@]2(C)[C@H]1CC[C@]2(O)C(=O)CO [Prednisolone, prednisolone]
solubility (physchem [2]; 0.25% cmc + 10% hpbetacd): 15300 µg/mL | solubility (physchem [2]; aqueous 0.25% cmc): 530 µg/mL (≈ 1.47 mM) | solubility (physchem [2]; aqueous 10% hpbetacd): 13600 µg/mL (≈ 37.7 mM) | solubility (physchem [2]; water): 380 µg/mL (≈ 1.05 mM) | S4 /S3 [4]: 1.13

COc1cc(Cc2cnc(N)nc2N)cc(OC)c1OC [Trimethoprim]
solubility at 72 h (physchem [5]; 0.25% pvp, 10% hpβcd): 6470 µg/mL (≈ 22.3 mM) | solubility at 72 h (physchem [5]; 10% hpβcd ms 0.7): 2830 µg/mL (≈ 9.75 mM) | solubility at 72 h (physchem [5]; aqueous 0.25% pvp): 1350 µg/mL (≈ 4.65 mM) | solubility at 72 h (physchem [5]; water): 820 µg/mL (≈ 2.82 mM)

CC(=O)[C@H]1CC[C@H]2[C@@H]3CCC4=CC(=O)CC[C@]4(C)[C@H]3CC[C@]12C [Progesterone, progesterone]
solubility at 72 h ([6]; 0.25% pvp, 10% hpβcd): 5710 µg/mL (≈ 18.2 mM) | solubility at 72 h ([6]; 10% hpβcd ms 0.7): 4760 µg/mL (≈ 15.1 mM) | S4 /S3 [6]: 1.20 | S4 /S3 [4]: 1.52 | solubility ([4]; 0.25% cmc + 10% hpbetacd): 6110 µg/mL | solubility ([4]; aqueous 10% hpbetacd): 4030 µg/mL (≈ 12.8 mM)

CC(C)(O)C(Cl)(Cl)Cl [Chlorbutol]
solubility (physchem [3]; 0.25% hpmc + 10% hpβcd): 29900 µg/mL | solubility (physchem [3]; aqueous 0.25% cmc): 8410 µg/mL (≈ 47.4 mM) | solubility (physchem [3]; aqueous 0.25% cmc, 10% hpβcd): 29300 µg/mL (≈ 165 mM) | solubility (physchem [3]; aqueous 0.25% hpmc): 8150 µg/mL (≈ 45.9 mM) | solubility (physchem [3]; aqueous 0.25% pvp): 8410 µg/mL (≈ 47.4 mM) | solubility (physchem [3]; aqueous 10% hpβcd): 28600 µg/mL (≈ 161 mM) | solubility (physchem [3]; water): 8110 µg/mL (≈ 45.7 mM)

CCOc1ccc2nc(S(N)(=O)=O)sc2c1 [Ethoxyzolamide]
S4 /S3 [6]: 2.00 | solubility (physchem [2]; 0.25% cmc + 10% hpbetacd): 1660 µg/mL | solubility (physchem [2]; aqueous 0.25% cmc): 70 µg/mL (≈ 0.271 mM) | solubility (physchem [2]; aqueous 10% hpbetacd): 1190 µg/mL (≈ 4.61 mM) | solubility (physchem [2]; water): 40 µg/mL (≈ 0.155 mM) | S4 /S3 [4]: 1.39 | solubility at 72 h (physchem [5]; 0.25% pvp, 10% hpβcd): 2720 µg/mL (≈ 10.5 mM) | solubility at 72 h (physchem [5]; 10% hpβcd ms 0.7): 1360 µg/mL (≈ 5.26 mM) | solubility at 72 h (physchem [5]; aqueous 0.25% pvp): 60 µg/mL (≈ 0.232 mM) | solubility at 72 h (physchem [5]; water): 40 µg/mL (≈ 0.155 mM)

C=C1CC[C@H](O)C/C1=C/C=C1\CCC[C@]2(C)[C@@H]([C@H](C)CCCC(C)C)CC[C@@H]12 [Cholecalciferol]
solubility (physchem [3]; 0.25% hpmc + 10% hpβcd): 690 µg/mL | solubility (physchem [3]; 0.25% pvp + 10% hpβcd): 760 µg/mL | solubility ratio (physchem [3]; [8]): 1.18 | solubility ratio (physchem [3]; [9]): 1.14 | solubility ratio (physchem [3]; [10]): 1.25 | solubility (physchem [3]; aqueous 0.25% cmc, 10% hpβcd): 720 µg/mL (≈ 1.87 mM) | solubility (physchem [3]; aqueous 10% hpβcd): 610 µg/mL (≈ 1.59 mM)

CC1(C)O[C@@H]2C[C@H]3[C@@H]4CCC5=CC(=O)C=C[C@]5(C)[C@@]4(F)[C@@H](O)C[C@]3(C)[C@]2(C(=O)CO)O1 [Triamcinolone acetonide, triamcinolone acetonide]
solubility (physchem [2]; 0.25% cmc + 10% hpbetacd): 2580 µg/mL | solubility (physchem [2]; aqueous 0.25% cmc): 70 µg/mL (≈ 0.161 mM) | solubility (physchem [2]; aqueous 10% hpbetacd): 2090 µg/mL (≈ 4.81 mM) | solubility (physchem [2]; water): 30 µg/mL (≈ 0.069 mM)

O=C(O)c1ccccc1O [Salicylic acid]
solubility (physchem [3]; 10% hpβcd acidic hcl solution): 3710 µg/mL (≈ 26.9 mM) | solubility ratio (physchem [3]; [8]): 1.14 | solubility ratio (physchem [3]; [9]): 1.06 | solubility ratio (physchem [3]; [10]): 1.10 | solubility (physchem [3]; acidic hcl, cmc, hpβcd): 4230 µg/mL (≈ 30.6 mM) | solubility (physchem [3]; hpmc/hpβcd acidic hcl solution): 3920 µg/mL (≈ 28.4 mM) | solubility (physchem [3]; pvp/hpβcd acidic hcl solution): 4070 µg/mL (≈ 29.5 mM)

COc1ccc(O)c(C(C)(C)C)c1 [Butylated hydroxyanisole]
S2 solubility (physchem [3]; 0.25% (w/v) CMC): 0.40 mg/mL | S4 solubility (physchem [3]; 0.25% (w/v) HPMC): 0.28 mg/mL | S3 solubility (physchem [3]; 0.25% (w/v) PVP): 1.24 mg/mL | S6 solubility (physchem [3]; 0.25% CMC and 10% HPβCD MS=0.6 (salicylic acid: acidic HCl solution)): 14.3 mg/mL | S8 solubility (physchem [3]; 0.25% HPMC and 10% HPβCD MS=0.6 (salicylic acid: acidic HCl solution)): 15.5 mg/mL | S7 solubility (physchem [3]; 0.25% PVP and 10% HPβCD MS=0.6 (salicylic acid: acidic HCl solution)): 15.8 mg/mL | S5 solubility (physchem [3]; 10% (w/v) HPβCD MS=0.6 (salicylic acid: acidic HCl solution)): 13.9 mg/mL | solubility ratio (physchem [3]; [8]): 1.03 | solubility ratio (physchem [3]; [9]): 1.12 | solubility ratio (physchem [3]; [10]): 1.14 | S1 solubility (physchem [3]; water): 0.40 mg/mL

CN(C)c1ccc(N=Nc2ccccc2)cc1 [Methylyellow]
solubility (physchem [3]; 0.25% hpmc + 10% hpβcd): 250 µg/mL | solubility (physchem [3]; 0.25% pvp + 10% hpβcd): 240 µg/mL | solubility ratio (physchem [3]; [8]): 1.04 | solubility ratio (physchem [3]; [9]): 1.09 | solubility ratio (physchem [3]; [10]): 1.04 | solubility (physchem [3]; aqueous 0.25% cmc): 0.85 µg/mL (≈ 0.00377 mM) | solubility (physchem [3]; aqueous 0.25% cmc, 10% hpβcd): 240 µg/mL (≈ 1.07 mM) | solubility (physchem [3]; aqueous 0.25% hpmc): 0.75 µg/mL (≈ 0.00333 mM) | solubility (physchem [3]; aqueous 0.25% pvp): 0.85 µg/mL (≈ 0.00377 mM) | solubility (physchem [3]; aqueous 10% hpβcd): 230 µg/mL (≈ 1.02 mM) | solubility (physchem [3]; water): 0.64 µg/mL (≈ 0.00284 mM)

CC12CCC(CC1=O)C2(C)C (stereo not drawn) [Camphor]
solubility (physchem [3]; 0.25% hpmc + 10% hpβcd): 13300 µg/mL | solubility (physchem [3]; 0.25% pvp + 10% hpβcd): 13700 µg/mL | solubility (physchem [3]; aqueous 0.25% cmc): 2010 µg/mL (≈ 13.2 mM) | solubility (physchem [3]; aqueous 0.25% cmc, 10% hpβcd): 13800 µg/mL (≈ 90.6 mM) | solubility (physchem [3]; aqueous 0.25% hpmc): 1920 µg/mL (≈ 12.6 mM) | solubility (physchem [3]; aqueous 0.25% pvp): 2200 µg/mL (≈ 14.5 mM) | solubility (physchem [3]; aqueous 10% hpβcd): 12700 µg/mL (≈ 83.4 mM) | solubility (physchem [3]; water): 1840 µg/mL (≈ 12.1 mM)

Clc1ccc(COC(Cn2ccnc2)c2ccc(Cl)cc2Cl)cc1 (stereo not drawn) [Econazole, econazole]
solubility (physchem [2]; 0.25% cmc + 10% hpbetacd): 7410 µg/mL | solubility (physchem [2]; aqueous 0.25% cmc): 600 µg/mL (≈ 1.57 mM) | solubility (physchem [2]; aqueous 10% hpbetacd): 4860 µg/mL (≈ 12.7 mM) | solubility (physchem [2]; water): 570 µg/mL (≈ 1.49 mM) | solubility ([7]; 9.88% hpbetacd + 0.12% cmc, 9.88% (w/v) HPβCD and 0.12% (w/v) CMC, read-out: S3 solubility): 5200 µg/mL | solubility ([7]; 9.88% hpbetacd + 0.12% hpmc, 9.88% (w/v) HPβCD and 0.12% (w/v) HPMC, read-out: S4 solubility): 6320 µg/mL | solubility ([7]; 9.88% hpbetacd + 0.12% pvp, 9.88% (w/v) HPβCD and 0.12% (w/v) PVP, read-out: S2 solubility): 5570 µg/mL | solubility ([7]; 10% hpbetacd, 10% (w/v) HPβCD, read-out: S1 solubility): 4860 µg/mL (≈ 12.7 mM) | solubility at 72 h (physchem [5]; 0.25% pvp, 10% hpβcd): 5650 µg/mL (≈ 14.8 mM) | solubility at 72 h (physchem [5]; 10% hpβcd ms 0.7): 5220 µg/mL (≈ 13.7 mM) | solubility at 72 h (physchem [5]; aqueous 0.25% pvp): 640 µg/mL (≈ 1.68 mM) | solubility at 72 h (physchem [5]; water): 570 µg/mL (≈ 1.49 mM)

Clc1ccccc1C(c1ccccc1)(c1ccccc1)n1ccnc1 [Clotrimazole, clotrimazole]
solubility (physchem [2]; 0.25% cmc + 10% hpbetacd): 1400 µg/mL | solubility (physchem [2]; aqueous 10% hpbetacd): 1200 µg/mL (≈ 3.48 mM) | solubility at 72 h (physchem [5]; 0.25% pvp, 10% hpβcd): 1800 µg/mL (≈ 5.22 mM) | solubility at 72 h (physchem [5]; 10% hpβcd ms 0.7): 1200 µg/mL (≈ 3.48 mM)
